According to patent US8546424B2, “Acetylene derivatives of 5-phenyl-pyrazolopyridine, preparation thereof, and therapeutic use thereof” (Sanofi, priority 2009, dated 2013):
pEC50: −log10 of the molar value.

Molecular target: T1, mouse Nurr1 receptor (Mus musculus, UniProt Q06219)
T1 construct: endogenously expressing the mouse Nurr1 receptor; host or cells: Neuro-2A (N2A) mouse neuroblastoma cells stably transfected with 8NBRE-luciferase
Assay: in vitro activity on N2A cells (8NBRE-luciferase reporter)
Format: cell-based
Settings: N2A-8NBRE cells, 24 hours incubation
Procedure: The compounds according to the invention have formed the subject of pharmacological assays which make it possible to determine their modulatory effect on NOT. Evaluation of the in vitro Activity on N2A Cells
The activity of the compounds according to the invention was evaluated on a cell line (N2A) endogenously expressing the mouse Nurr1 receptor and stably transfected with the NOT binding response element (NBRE) coupled to the luciferase reporter gene. The assays were carried out according to the procedure described below.
The Neuro-2A cell line comes from a standard commercial source (ATCC). The Neuro-2A clone was obtained, from a spontaneous tumour originating from an A albino mouse strain, by R. J Klebe et al. This Neuro-2A line is subsequently stably transfected with 8NBRE-luciferase. The N2A-8NBRE cells are cultured until confluence in 75 cm^2 culture flasks containing DMEM supplemented with 10% of foetal calf serum, 4.5 g/l of glucose and 0.4 mg/ml of geneticin. After a week of culture, the cells are recovered with 0.25% trypsin for 30 seconds and then resuspended in DMEM without phenol red, containing 4.5 g/l of glucose and 10% of Hyclone delipidized serum, and deposited into transparent-bottom 96-well white plates. […] The plates are subsequently measured in a luminescence counter for microplates after having been sealed with an adhesive film. […]

T1 sequence (Q06219 whole entry): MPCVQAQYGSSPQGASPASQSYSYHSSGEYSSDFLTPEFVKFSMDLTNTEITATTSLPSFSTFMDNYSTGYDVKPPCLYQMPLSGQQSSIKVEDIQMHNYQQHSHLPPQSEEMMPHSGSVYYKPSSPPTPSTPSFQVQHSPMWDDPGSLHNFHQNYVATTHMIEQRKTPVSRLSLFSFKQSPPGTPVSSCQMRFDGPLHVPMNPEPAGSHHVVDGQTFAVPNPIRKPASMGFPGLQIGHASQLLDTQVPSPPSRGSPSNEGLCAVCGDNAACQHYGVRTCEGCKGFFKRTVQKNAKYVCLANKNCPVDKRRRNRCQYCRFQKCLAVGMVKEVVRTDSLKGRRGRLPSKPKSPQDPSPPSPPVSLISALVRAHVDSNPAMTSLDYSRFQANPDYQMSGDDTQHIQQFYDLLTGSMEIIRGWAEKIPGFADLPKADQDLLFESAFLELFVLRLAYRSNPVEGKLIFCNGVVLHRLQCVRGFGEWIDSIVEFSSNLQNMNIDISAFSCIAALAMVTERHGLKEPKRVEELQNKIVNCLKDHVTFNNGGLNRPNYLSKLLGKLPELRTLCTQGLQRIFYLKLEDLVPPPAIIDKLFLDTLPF

Work on C#CC(O)c1cccc(-c2ccn3nc(-c4ccc(F)cc4)cc3c2)c1 (racemic) [Compound 2, 1-{3-[2-(4-Fluorophenyl)pyrazolo[1,5-a]pyridin-5-yl]phenyl}prop-2-yn-1-ol] yielded a pEC50 of 8.52.

Test system: not given
Assay: not given
Settings: not given

First: C#CC(O)c1cccc(-c2ccn3nc(-c4ccc(F)cc4)cc3c2)c1 (racemic) [Compound 2, 1-{3-[2-(4-Fluorophenyl)pyrazolo[1,5-a]pyridin-5-yl]phenyl}prop-2-yn-1-ol]
Second: C#CC(O)c1cccc(-c2ccn3nc(-c4ccc(C)cc4)cc3c2)c1 (racemic) [Compound 8, 1-[3-(2-{p-Tolyl}pyrazolo[1,5-a]pyridin-5-yl)phenyl]prop-2-yn-1-ol]
The melting point of the first is higher: 192 to 194 °C for the first, 183 to 185 °C for the second.

Compared with C#CC(C)(O)c1cccc(-c2ccn3nc(-c4ccc(F)cc4)cc3c2)c1 (single isomer, unassigned; (-)) [Compound 11, (−)-2-{3-[2-(4-Fluorophenyl)pyrazolo[1,5-a]pyridin-5-yl]phenyl}but-3-yn-2-ol], C#CC(O)c1cccc(-c2ccn3nc(-c4ccc(F)cc4)cc3c2)c1 (single isomer, unassigned; (+)) [Compound 10, (+)-1-{3-[2-(4-Fluorophenyl)pyrazolo[1,5-a]pyridin-5-yl]phenyl}prop-2-yn-1-ol] is higher in melting point: 122 to 124 °C for the first, 139 to 141 °C for the second.

Compared with C#CC(O)c1ccccc1-c1ccn2nc(-c3ccc(F)cc3)cc2c1 (racemic) [Compound 5, 1-{2-[2-(4-Fluorophenyl)pyrazolo[1,5-a]pyridin-5-yl]phenyl}prop-2-yn-1-ol], C#CC(O)c1cccc(-c2ccn3nc(-c4ccc(F)cc4)cc3c2)c1 (single isomer, unassigned; (-)) [Compound 9, (−)-1-{3-[2-(4-Fluorophenyl)pyrazolo[1,5-a]pyridin-5-yl]phenyl}prop-2-yn-1-ol] is higher in melting point: 104 to 106 °C for the first, 147 to 149 °C for the second.

Compared with CC#CC(O)c1cccc(-c2ccn3nc(-c4ccc(F)cc4)cc3c2)c1 (racemic) [Compound 3, 1-{3-[2-(4-Fluorophenyl)pyrazolo[1,5-a]pyridin-5-yl]phenyl}but-2-yn-1-ol], C#CC(C)(O)c1cccc(-c2ccn3nc(-c4ccc(F)cc4)cc3c2)c1 (racemic) [Compound 4, 2-{3-[2-(4-Fluorophenyl)pyrazolo[1,5-a]pyridin-5-yl]phenyl}but-3-yn-2-ol] is higher in melting point: 164 to 166 °C for the first, 215 to 217 °C for the second.

First: C#CC(C)(O)c1cccc(-c2ccn3nc(-c4ccc(F)cc4)cc3c2)c1 (single isomer, unassigned; (+)) [Compound 12, (+)-2-{3-[2-(4-Fluorophenyl)pyrazolo[1,5-a]pyridin-5-yl]phenyl}but-3-yn-2-ol]
Second: C#CC(O)c1cccc(-c2ccn3nc(-c4ccc(Cl)cc4)cc3c2)c1 (racemic) [Compound 1, 1-{3-[2-(4-Chlorophenyl)pyrazolo[1,5-a]pyridin-5-yl]phenyl}prop-2-yn-1-ol]
The melting point of the first is lower: 126 to 128 °C for the first, 195 to 197 °C for the second.

Compared with C#CC(O)c1c(F)ccc(-c2ccn3nc(-c4ccc(F)cc4)cc3c2)c1F (racemic) [Compound 6, 1-{2,6-Difluoro-3-[2-(4-fluorophenyl)pyrazolo[1,5-a]pyridin-5-yl]-phenyl}prop-2-yn-1-ol], C#CC(O)c1cccc(-c2ccn3nc(-c4ccccc4F)cc3c2)c1 (racemic) [Compound 7, 1-{3-[2-(2-Fluorophenyl)pyrazolo[1,5-a]pyridin-5-yl]phenyl}prop-2-yn-1-ol] is higher in melting point: 151 to 153 °C for the first, 157 to 159 °C for the second.
